Tests used:
Type in all cases: in vivo
[1] = Non-alcoholic lemon lime beverage tasting versus control beverage; settings: 0.5 PPM compound plus 35 PPM lemon oil/lime oil flavor; versus control beverage with flavor only
Method: A non-alcoholic beverage formulation was prepared according to the following formulation: […]
The flavor applied to the beverages consisted of a blend of single fold lemon oil and distilled lime oil. The control beverage contained 35 PPM of this flavor. […] Another beverage was prepared containing 35 PPM of the same flavor and 0.5 PPM of N-Ethyl E2,Z6-nonadienamide.

[2] = Flavor / organoleptic characteristics of the alkyldienamides; settings: for Primary characteristic / Secondary characteristic: flavor characteristics; for Taste and flavor characteristics: organoleptic properties
[3] = Alcoholic peach beverage tasting versus control beverage; settings: 20 PPM compound plus 60 PPM peach flavor in 30° Proof alcoholic base
Method: Flavored beverages were prepared using the following 30° Proof alcoholic base:
The peach flavor applied to the beverages consisted of a blend of Gamma Decalactone, Benzaldehyde, Cis-3-hexenol, Butyric acid, 2-Methyl butyric acid, Iso butyl acetate, Linalool, and para-Mentha-8-thiol-3-one. The control beverage contained 60 PPM of the above flavor blend. […] Another beverage was prepared containing 60 PPM of the same flavor and 20 PPM of N-(3,4-methylenedioxy)benzyl E2,Z6-nonadienamide.

[4] = Hard candy (cinnamon bark oil) tasting versus control candy; settings: 100 PPM compound in cinnamon bark oil candy
Method: The above ingredients were added to a stainless steel pot. With constant mixing the ingredients were brought to 295° F. The pot was removed from the heat and 0.5 grams of cinnamon bark oil was blended in. This liquid candy was then deposited into molds where it was left to cool. This recipe yielded 200 grams of finished candy. […] Another candy sample was prepared using the above recipe with the addition of 100 PPM of N-Methyl E2,Z6-nonadienamide.

[5] = Toothpaste tasting in normal tooth brushing versus control paste; settings: 200 ppm compound added to mint control paste
Method: The following separate groups of ingredients were prepared:
2.0 parts by weight of sodium n-Lauroyl sarcosinate (foaming agent)
1.0 parts by weight of the flavor material which is a blend of peppermint oil, spearmint oil, anethole, and menthol.
• (1) The ingredients in Group “A” were stirred and heated in a steam jacketed kettle to 160° F. • (2) Stirring was continued for an additional 3 to 5 minutes to form a homogeneous gel. • (3) The powders of Group “B” were added to the gel, while mixing until a homogeneous paste is formed. • (4) With stirring, the flavor of Group “D” was added, followed by addition immediately thereafter of the foaming agent of Group “C”. • (5) The resultant slurry was then blended for one hour.
The completed paste was then transferred to a three-roller mill, homogenized and finally tubed. […] To this control paste 200 ppm of N-Isobutyl E2,Z6-dodecadienamide is added.

SMILES	Primary characteristic [2]	Secondary characteristic [2]	Taste and flavor characteristics [2]	further results
CC/C=C\CC/C=C/C(=O)NCC [N-ethyl E2,Z6-nonadienamide]	Umami	Enhancement	Umami character.	Taste effect in non-alcoholic beverage [1]: enhanced flavor impact, increased tartness, and an increased perception of freshness
CC/C=C\CC/C=C/C(=O)NCC(C)O (stereo not drawn) [N-(2-hydroxypropyl) E2,Z6-nonadienamide]			Cloying, fatty, cod liver oil, fishy.	
CC/C=C\CC/C=C/C(=O)NCc1ccc2c(c1)OCO2 [N-(3,4-methylenedioxy) benzyl E2,Z6-nonadienamide]	Numbing	Tingle	Numbing and tingle.	Taste effect in alcoholic beverage [3]: an enhanced perception of alcohol, increased flavor impact, and a tingle effect on the tongue
CC/C=C\CC/C=C/C(=O)NC [N-methyl E2,Z6-nonadienamide]	Tingle	Numbing	Warming, tingle.	Taste effect in hard candy [4]: a greener flavor with less warmth, a slight numbing and a moderate level of tingle
CC/C=C\CC/C=C/C(=O)NCC(C)C [N-isobutyl E2,Z6-nonadienamide]		MSG like		
CC/C=C\CC/C=C/C(=O)NCC(C)CC (stereo not drawn) [N-(2-methylbutyl) E2,Z6-nonadienamide]	Bitter	Tingle	Metallic, bitter, tingle.	
CCCCC/C=C\CC/C=C/C(=O)NCC(C)C [N-isobutyl E2,Z6-dodecadienamide]	Numbing	Tingle		Additional sensation of toothpaste (tingle, numbing) [5]: tingle on the tongue and a slight numbing on the lips; Flavor / cooling of toothpaste [5]: moderate cooling without the bitterness of the control sample
CC/C=C\CC/C=C/C(=O)NC(C)C [N-isopropyl E2,Z6-nonadienamide]	Cucumber taste	Tingle	Oily, cucumber, some tingle, bitter.	
CCCCC/C=C\CC/C=C/C(=O)NC(C)C [N-isopropyl E2,Z6-dodecadienamide]		Tingle	Oily flavor, slight tingle.	
CCCCC/C=C\CC/C=C/C(=O)NCC(C)CC (stereo not drawn) [N-(2-methylbutyl) E2,Z6-dodecadienamide]	Fruity	Salt like	Slightly fruity, tingle, salty.	
CCCCC/C=C\CC/C=C/C(=O)NCC [N-ethyl E2,Z6-dodecadienamide]	MSG like	Burning		
CC/C=C\CC/C=C/C(=O)NC1CC1 [N-cyclopropyl E2,Z6-nonadienamide]	Umami	Enhancement		

— patent US7632531B2, “Alkyldienamides exhibiting taste and sensory effect in flavor compositions” (International Flavors & Fragnances Inc., priority 2003, dated 2009)
